Data on 20 compounds can be found in US20180170941A1 (priority 2016, published 2018).

Where two headings read alike, the source gives them in different places.

What is called Ki is the equilibrium dissociation constant of an inhibitor or competing ligand from its target. A high value points to a looser hold on the target.

For series [1], the system named is aged-impaired (AI) rats. The series is described as follows: Morris water maze behavioral task, ICV infusion. Type of series: in vivo, rat. The settings on record: 100 μg ICV. From the text: Cognitively impaired aged rats were implanted unilaterally with a cannula into the lateral ventricle. Stereotaxic coordinates were 1.0 mm posterior to bregma, 1.5 mm lateral to midline, and 3.5 mm ventral to the skull surface. After about a week of recovery, the rats were pre-trained in a water maze for 2 days (6 trials per day) to locate a submerged escape platform hidden underneath the surface of the pool, in which the escape platform location varied from day to day. No intracerebroventricular (ICY) infusion was given during pre-training.
After pre-training, rats received ICV infusion of either 100 μg 6,6 dimethyl-3-(3-hydroxypropypthio-1-(thiazol-2-yl)-6,7-dihydro-2-benzothiophen-4(5H)-one (n=6) in 5 μl DMSO or vehicle DMSO (n=5) 40 min prior to water maze training and testing. Training consisted of 8 trials per day for 2 days where the hidden escape platform remained in the same location. Rats were given 60 seconds to locate the platform with a 60 seconds inter-trial interval. The rats were given a probe test (120 seconds) 24 hr. after the end of training where the escape platform was removed. During the training, there were 4 blocks, where each block had 4 training trials.
During a test trial 24 hr. after training, the escape platform was removed. The search/swim pattern of the rats was used to measure whether the rats remember where the escape platform was located during pre-trial training in order to test for the long-term memory of the rats. In this trial, “target annulus” is a designated area 1.5 times the size of the escape platform around the area where the platform was located during pre-trial training. “Opposite annulus” is a control area of the same size as the size of the target annulus, which is located opposite to the target annulus in the pool. If the rats had good long term memory, they would tend to search in the area surrounding the location where the platform was during the pre-trial training (i.e., the “target” annulus; and not the “opposite” annulus). “Time in annulus” is the amount of time in seconds that the rat spent in the target or opposite annulus area. “Number (#) of crossings” in annulus is the number of times the rat swam across the target or opposite annulus area.

Series [2] addresses T1, α5β3γ2 GABAA receptors (Ltk cell membranes) (Homo sapiens, UniProt P18507+P31644).
T1 construct: membranes
The series can be described thus: Binding activity of test compounds on GABAAR: inhibition of [3H]Ro15-1788 binding. The method in brief:
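Membranes from dexamethasone-induced Ltk cells (α5 line: 0.5 μM, 1 day); binding with [3H]Ro15-1788 for 1 h at 4 °C in 50 mM KH2PO4, 1 mM EDTA, 0.2 M KCl, pH 7.4, 0.2 mg/ml α5 protein. Nonspecific binding defined by 10 μM diazepam; filtration, scintillation counting, triplicates.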

A further series deals with T2, GABAA α5 receptor (Rattus norvegicus, UniProt P18508+P19969).
T2 construct: from tissue
T2 sequence (P19969 32-464 limits assumed): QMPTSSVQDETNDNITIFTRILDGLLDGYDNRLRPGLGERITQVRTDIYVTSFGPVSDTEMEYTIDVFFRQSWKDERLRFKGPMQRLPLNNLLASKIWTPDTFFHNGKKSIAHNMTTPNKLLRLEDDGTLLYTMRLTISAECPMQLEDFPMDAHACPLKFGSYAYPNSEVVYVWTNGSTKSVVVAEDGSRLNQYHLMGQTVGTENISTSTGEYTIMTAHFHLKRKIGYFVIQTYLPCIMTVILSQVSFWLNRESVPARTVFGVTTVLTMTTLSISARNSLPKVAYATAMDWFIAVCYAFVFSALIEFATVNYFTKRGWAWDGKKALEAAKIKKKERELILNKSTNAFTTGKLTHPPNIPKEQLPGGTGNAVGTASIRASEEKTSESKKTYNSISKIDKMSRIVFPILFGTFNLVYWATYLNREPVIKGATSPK
T2 sequence (P18508 39-466): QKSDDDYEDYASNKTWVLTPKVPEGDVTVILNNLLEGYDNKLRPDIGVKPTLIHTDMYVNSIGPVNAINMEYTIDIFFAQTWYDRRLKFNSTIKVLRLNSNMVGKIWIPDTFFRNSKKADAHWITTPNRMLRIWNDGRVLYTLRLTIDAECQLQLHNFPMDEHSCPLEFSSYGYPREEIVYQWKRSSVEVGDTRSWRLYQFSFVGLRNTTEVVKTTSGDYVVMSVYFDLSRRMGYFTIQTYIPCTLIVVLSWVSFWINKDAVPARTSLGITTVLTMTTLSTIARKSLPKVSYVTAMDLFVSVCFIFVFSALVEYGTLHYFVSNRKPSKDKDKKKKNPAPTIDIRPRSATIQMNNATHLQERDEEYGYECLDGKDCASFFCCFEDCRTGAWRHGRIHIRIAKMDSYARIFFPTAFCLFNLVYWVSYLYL
The series can be described thus: GABAA α5 receptor occupancy with Ro 15-4513 tracer, hippocampus vs cerebellum. The series is classed as in vivo, Long Evans rats. The settings on record: for Ro 15-4513 binding in hippocampus / cerebellum levels (binding) of Ro 15-4513: 0.01-10 mg/kg. The method, then:
Food and water were available ad libitum.
The (100 μl) supernatant solution was diluted by […] of sterile water (pH 6.5).

The next series relates to MAM-treated rats. To be noted: cited from earlier work.
Series [3] relates to aged-impaired (AI) rats. The series can be described thus: Radial Arm Maze (RAM) behavioral task, spatial memory retention. Type of series: in vivo, rat. As to the method: The effects of methyl 3,5-diphenylpyridazine-4-carboxylate on the in vivo spatial memory retention of aged-impaired (AI) rats were assessed in a Radial Arm Maze (RAM) behavioral task using vehicle control and four different dosage levels of methyl 3,5-diphenylpyridazine-4-carboxylate (0.1 mg/kg, 0.3 mg/kg, 1 mg/kg and 3 mg/kg, ip). RAM behavioral tasks were performed on eight AI rats. All five treatment conditions (vehicle and four dosage levels) were tested on all eight rats.
The RAM apparatus used consisted of eight equidistantly-spaced arms. An elevated maze arm (7 cm width×75 cm length) projected from each facet of an octagonal center platform (30 cm diameter, 51.5 cm height). Clear side walls on the arms were 10 cm high and were angled at 65° to form a trough. A food well (4 cm diameter, 2 cm deep) was located at the distal end of each arm. Froot Loops™ (Kellogg Company) were used as rewards. Blocks constructed of Plexiglas™ (30 cm height×12 cm width) could be positioned to prevent entry to any arm. Numerous extra maze cues surrounding the apparatus were also provided.
The AI rats were initially subjected to a pre-training test (Chappell et al. Neuropharmacology 37: 481-487, 1998). […]

The mark [4] stands for this setting: GABA α5 Binding Ki Values, inhibition of [3H]Ro15-1788 binding, reported as ranges.
Setting [5] is: i.v., listed as Methyl 3,5-diphenylpyridazine-4-carboxylate.

T1 sequence (P31644 32-462): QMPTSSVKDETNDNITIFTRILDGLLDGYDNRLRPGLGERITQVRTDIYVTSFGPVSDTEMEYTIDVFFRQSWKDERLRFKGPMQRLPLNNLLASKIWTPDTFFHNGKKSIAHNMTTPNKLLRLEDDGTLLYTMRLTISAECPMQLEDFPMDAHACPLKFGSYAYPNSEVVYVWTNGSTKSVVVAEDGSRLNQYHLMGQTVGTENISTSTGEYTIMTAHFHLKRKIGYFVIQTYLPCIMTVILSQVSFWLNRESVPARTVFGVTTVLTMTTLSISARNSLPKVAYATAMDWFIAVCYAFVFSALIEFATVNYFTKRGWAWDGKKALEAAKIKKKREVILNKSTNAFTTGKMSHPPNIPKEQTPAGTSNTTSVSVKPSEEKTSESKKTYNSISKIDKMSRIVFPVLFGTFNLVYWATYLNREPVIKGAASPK
T1 sequence (P28472 26-473 partner): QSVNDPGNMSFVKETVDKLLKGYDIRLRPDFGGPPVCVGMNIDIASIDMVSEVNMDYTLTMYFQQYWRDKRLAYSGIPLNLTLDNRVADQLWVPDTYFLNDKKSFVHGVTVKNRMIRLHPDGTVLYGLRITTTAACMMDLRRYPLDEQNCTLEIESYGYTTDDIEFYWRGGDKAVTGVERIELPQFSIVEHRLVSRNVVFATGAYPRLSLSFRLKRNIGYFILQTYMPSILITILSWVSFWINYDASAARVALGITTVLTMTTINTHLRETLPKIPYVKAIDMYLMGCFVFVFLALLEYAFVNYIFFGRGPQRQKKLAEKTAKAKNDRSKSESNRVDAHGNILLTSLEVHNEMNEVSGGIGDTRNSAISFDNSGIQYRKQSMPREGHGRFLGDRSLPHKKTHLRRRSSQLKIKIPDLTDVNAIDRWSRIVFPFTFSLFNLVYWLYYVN
T1 sequence (P18507 40-475): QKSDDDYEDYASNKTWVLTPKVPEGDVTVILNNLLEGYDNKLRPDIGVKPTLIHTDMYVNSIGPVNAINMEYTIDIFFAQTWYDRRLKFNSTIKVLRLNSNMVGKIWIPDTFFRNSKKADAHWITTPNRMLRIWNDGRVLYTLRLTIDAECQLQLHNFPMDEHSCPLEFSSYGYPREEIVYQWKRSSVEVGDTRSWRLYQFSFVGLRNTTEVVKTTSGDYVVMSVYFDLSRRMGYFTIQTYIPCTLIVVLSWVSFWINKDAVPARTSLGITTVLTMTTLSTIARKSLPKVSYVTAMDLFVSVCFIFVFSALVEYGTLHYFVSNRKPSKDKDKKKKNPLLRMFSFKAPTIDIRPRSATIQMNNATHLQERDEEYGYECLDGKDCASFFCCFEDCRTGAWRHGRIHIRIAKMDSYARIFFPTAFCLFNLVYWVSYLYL

Turning to `CC1(C)CC(=O)c2c(SCCCO)sc(-c3nccs3)c2C1` [6,6 dimethyl-3-(3-hydroxypropyl)thio-1-(thiazol-2-yl)-6,7-dihydro-2-benzothiophen-4(5H)-one], in the series with aged-impaired (AI) rats [1], the “time to find the escape platform, block 1 (beginning of training)” value was “about 24 seconds” and the “time to find the escape platform, block 4 (end of training)” value was “about 9.6 seconds”. For the same compound, in the series with aged-impaired (AI) rats [1] (24 hr. after training), the “number of crossings of target annulus compared with opposite annulus, probe test” value is listed as “more often” and the “time in target annulus compared with opposite annulus, probe test” value was “significantly more time”.
On to `COCc1nnc2n1Cc1c(C#CC(=O)c3ccccc3)ncn1-c1ccc(Cl)cc1-2` [Compound 455], for which the Ki in series [2] (setting [4]) was less than 100 nM.
In the case of `COCc1nnc2n1Cc1c(-c3nc(C)no3)ncn1-c1ccc(OC(F)(F)F)cc1-2` [Compound 456], the Ki in series [2] (setting [4]) was less than 100 nM.
With `COCc1nnc2n1Cc1c(-c3nc(C)no3)ncn1-c1cc(Cl)ccc1-2` [Compound 457], the Ki in series [2] is more than 1000 nM.
Consider `COCc1nnc2n1Cc1c(-c3nc(C)no3)ncn1-c1ccc(C(F)(F)F)cc1-2` [Compound 459], for which the Ki in series [2] (setting [4]) is less than 100 nM.
The compound `COCc1nnc2n1Cc1c(C3=NCCO3)ncn1-c1ccc(OC(F)(F)F)cc1-2` [Compound 460] registered a Ki in series [2] (setting [4]) of 100 to 1000 nM.
On to `COCc1nnc2n1Cc1c(-c3nc(C)no3)ncn1-c1ccc(Br)cc1-2` [Compound 461], for which, in series [2] (setting [4]), the Ki was less than 100 nM.
In series [2] (setting [4]), `COCc1nnc2n1Cc1c(-c3nc(C)no3)ncn1-c1ccc(-c3ccccc3)cc1-2` [Compound 462] yielded a Ki of less than 100 nM.
As to `COCc1nnc2n1Cc1c(-c3nc(C)no3)ncn1-c1c(Cl)cccc1-2` [Compound 463], the Ki in series [2] is more than 1000 nM.
Turning to `COCc1nnc2n1Cc1c(-c3nc(C)no3)ncn1-c1ccc(C#N)cc1-2` [Compound 465], the Ki in series [2] (setting [4]) was less than 100 nM.
Turning to `COCc1nnc2n1Cc1c(-c3ncco3)ncn1-c1c(Cl)cccc1-2` [Compound 466], the inhibitory constant (Ki) in series [2] is more than 1000 nM.
For `COCc1nnc2n1Cc1c(-c3ncco3)ncn1-c1ccc(OC(F)(F)F)cc1-2` [Compound 467], the Ki in series [2] (setting [4]) is less than 100 nM.
Same read-out and setting: under `COCc1nnc2n1Cc1c(-c3nc(C)no3)ncn1-c1ccc(-c3cccnc3)cc1-2` [Compound 469] stands 100 to 1000 nM; under `COCc1nnc2n1Cc1c(C3=NCCO3)ncn1-c1ccc(C(F)(F)F)cc1-2` [Compound 470], 100 to 1000 nM.
As to `COCc1nnc2n1Cc1c(-c3ncco3)ncn1-c1ccc(C(F)(F)F)cc1-2` [Compound 471], in series [2] (setting [4]), the Ki is less than 100 nM.
`CCOC(=O)c1ncn2c1Cn1c(C)nnc1-c1cc(OC)ccc1-2` [Ethyl 3-methoxy-7-methyl-9H-benzo[f]imidazo[1,5-a][1,2,4]tri]: at GABAA α5 receptor (i.v.), the “Ro 15-4513 binding in hippocampus” value is listed as “blocked” and the “cerebellum levels (binding) of Ro 15-4513” value (“cerebellum levels (binding)” below) is “did not affect”.
For `CCOC(=O)c1ncn2c1CN(C)C(=O)c1cc(N=[N+]=[N-])ccc1-2` [Ro 15-4513], the “Ro 15-4513 level in hippocampus compared with cerebellum” value at GABAA α5 receptor (tracer 1 μg/kg, i.v., after vehicle) was more than 5 fold.
For `C#Cc1ccc2c(c1)C(c1ccccc1F)=N[C@H](C)c1c(C(=O)OCC)ncn1-2` [SH-053-2′F-R—CH3], the “increased locomotor response to amphetamine in MAM-treated rats” value with MAM-treated rats (rat, in vivo) is reported as “reduced”. The “number of spontaneously active DA neurons in the ventral tegmental area (VTA) of MAM rats” value with MAM-treated rats (systemic or infused into the ventral HPC) is reported as “to levels observed in saline-treated rats”.
As to `CCOC(=O)c1ncn2c1Cn1c(C)nnc1-c1cc(OC)ccc1-2` [ethyl 3-methoxy-7-methyl-9H-benzo[f]imidazo[1,5-a][1,2,4]tri], the “memory performance relative to vehicle control” value in the series on aged-impaired (AI) rats [3] (3 mg/kg, four-hour delay, p=0.004 or p=0.018) is given as “significantly improved memory performance”. Besides, on GABAA α5 receptor (i.v.), the “Ro 15-4513 binding in hippocampus” value was “reduced” and the “cerebellum levels (binding)” value is “without affecting”.
Take `COC(=O)c1c(-c2ccccc2)cnnc1-c1ccccc1` [methyl 3,5-diphenylpyridazine-4-carboxylate]: the “memory performance relative to vehicle control” value in the series on aged-impaired (AI) rats [3] (3 mg/kg ip, two-hour delay, t(7)=4.233, p=0.004) is recorded as “significantly improved memory performance”. Moreover, at GABAA α5 receptor (i.v.), the “Ro 15-4513 binding in hippocampus” value was “blocked”; the “cerebellum levels (binding)” value is on record as “did not affect”; the “ED50 of receptor occupancy, ratio method” value was found to be 1.8 mg/kg. Besides, on GABAA α5 receptor (setting [5]), the “Ro 15-4513 binding in hippocampus” value is “dose-dependently reduced” and the “cerebellum levels (binding)” value is listed as “without affecting”. On GABAA α5 receptor (from exposure in aged rats at 3 mg/kg, i.p.), the “RO required for cognitive efficacy in this model” value was 30-40%. In addition, the “GABAA α5 receptors occupied at exposures behaviorally active in aged-impaired rats” value on GABAA α5 receptor (hippocampus exposure-occupancy relationship (FIG. 4)) is “about 32%”.
